Assay results reported in patent US20020006661A1, “Controlling gene expression in living cells” (University of Massachusetts, a Massachusetts corporation, priority 1998, published 2002).

How the values were obtained:
[1] = test system: H2-RSETA mRNA (H10 and H19 in tandem in the 5′ UTR); assay: Wheat germ in vitro translation of H2-RSETA mRNA; assay type: biochemical; conditions: 0, 40 or 80 μM H33258, wheat germ extract
Experimental: (§1) FIG. 10. is a histogram summarizing SDS-PAGE densitometry data from in vitro translation experiments. RNA transcripts containing 0 (RSETA) or 2 copies of an H33258 aptamer (H2-RSETA) were translated in a wheat germ extract in the presence of ^35S-methionine and 0, 40 or 80 μM H33258. Protein products were subjected to SDS-PAGE and quantitated by densitometry. For each transcript, translation in the absence of drug was set at 100%.
(§2) In vitro transcription reactions contained 5 μg pRSETA (or RSET derivative), 0.5 mM m^7G(5′)G, 0.5 mM ATP, CTP, UTP, 0.05 mM GTP, 10 mM DTT and 40 U T7 RNA polymerase in 50 μl of a solution of 40 mM Tris-HCl pH 7.5, 6 mM MgCl2, 2 mM spermidine, 10 mM NaCl. Following incubation for 1 hour at 37° C., RNA was purified by phenol:chloroform extraction, ethanol precipitation and resuspended in 30 μl H2O. Translation reactions were carried out in 10 μl containing 5 μl wheat germ extract, 0.8 μl 1 mM amino acid mixture (minus methionine), 2 μl of RNA transcript (described above), 0.5 μl [^35S] methionine (1200 Ci/mmole) and 0-80 μM drug. Reactions were incubated at 25{square root} C. for 15 minutes and terminated by addition of 2X sample loading buffer. Translation products were separated by electrophoresis on an 18% polyacrylamide gel, visualized by autoradiography, and quantitated by densitometry.

[2] = known; cited from earlier work
[3] = cited from earlier work; for Cell permeability: known
[4] = test system: luciferase reporter (pGL3) in CHO cells; assay: Luciferase internal control reporter in transfected CHO cells; assay type: cell-based; conditions: 24 hours, 0, 5 or 10 μM H33342
Experimental: (§3) FIG. 11 is a histogram summarizing data from in vivo expression experiments. H33258 aptamers H10 and H19 were cloned in tandem into the 5′ UTR of a β-galactosidase reporter gene (SVβ gal; Promega) to generate SVH2β gal. CHO cells were cotransfected with 1 μg SVβ gal or SVH2β gal and 1 μg of a luciferase expression vector (pGL3). Transfected cells were grown in the presence of […]. Twenty-four hours after transfection, cell extracts were prepared, and β-galactosidase and luciferase activities were determined.
(§4) To test whether this small molecule-aptamer interaction could be used to control gene expression in vivo, one copy of H10 and H19 were inserted into the 5′ UTR of a mammalian β-galactosidase expression plasmid SVβ Gal (Promega), generating the construct SVH2β gal. CHO cells were cotransfected with SVH2β Gal or as a control the parental vector, SVβ Gal, and a luciferase reporter gene to provide an internal control. Following transfection, cells were grown for 24 hours in the presence of 0, 5 or 10 μM H33342 and analyzed for β-galactosidase and luciferase activities.
(§5) H33258 aptamers, H10 and H19, were cloned in tandem into the 5′ UTR of a β-galactosidase reporter gene (SVβ gal, Promega) to generate SVH2β gal. […] 24 hours post-transfection cell extracts were prepared and β-galactosidase and luciferase activities were determined.

[5] = test system: parental expression vector SVβ Gal in CHO cells; assay: β-galactosidase reporter expression in transfected CHO cells, parental SVβ Gal; assay type: cell-based; conditions: 24 hours, 0, 5 or 10 μM H33342, data not shown
Experimental: as §3, §4, §5

[6] = test system: SVH2β Gal (β-galactosidase reporter with H10 and H19 in the 5′ UTR) in CHO cells; assay: β-galactosidase reporter expression in transfected CHO cells, SVH2β gal; assay type: cell-based; conditions: 24 hours, 0, 5 or 10 μM H33342, dose-dependent
Experimental: as §3, §4, §5

[7] = test system: tob3-RSETA mRNA (three copies of the tob aptamer in the 5′ UTR); assay: Wheat germ in vitro translation of tob3-RSETA mRNA; assay type: biochemical; conditions: 0, 30 or 60 μM drug, wheat germ extract
Experimental: (§6) FIG. 4. is a histogram showing percent translation of mRNA in a wheat germ in vitro translation system containing 0 (RSETA) or 3 copies of the tob aptamer cloned into the 5′ UTR of RSETA (tob3-RSETA) and 0, 30 or 60 μM tobramycin or kanamycin A. Protein products were analyzed by SDS-PAGE and quantitated by densitometry. For each transcript, translation in the absence of drug was set at 100%.
A test mRNA was constructed containing three copies of the tob aptamer inserted in the 5′ UTR of RSETA (tob3-RSETA). In vitro translation reactions were performed in the presence of 0, 30 or 60 μM tobramycin or kanamycin A.
as §2, with “Reactions were incubated at 25{square root} C. for 15 minutes and terminated by addition of 2X sample loading buffer.” left out

[8] = test system: E. coli BL-21 cells expressing RSETA, kan or tob aptamers; assay: Growth of E. coli expressing antibiotic aptamers in antibiotic-containing medium; assay type: cell-based; conditions: 10 mM antibiotic, liquid culture; for Growth of bl-kan1 (kanamycin aptamer) in the presence of antibiotic: strain bl-kan1; for Growth of bl-tob1 (tobramycin aptamer) in the presence of antibiotic: strain bl-tob1
Experimental: FIGS. 3A-3E are growth curves of E. coli expressing antibiotic aptamers. Overnight cultures of BL-21 cells transformed with plasmids expressing RSETA, tob1, tob3, kan1 or kan3 were diluted 100-fold into medium containing the indicated concentration of aminoglycoside antibiotic. Optical density (660 nm) was measured at fixed intervals over 8 hours of growth at 37° C.
As an initial test for the ability of these aptamers to function in vivo, we asked whether following expression in E. coli the aptamer would sequester the cognate antibiotic thereby conferring a specific drug-resistant phenotype. Toward this end, one or three copies of the kanamycin A (kan) or the tobramycin (tob) aptamer were cloned into the T7 RNA polymerase-driven expression vector PRSETA (Invitrogen), and transformed into a bacterial strain containing an IPTG-inducible T7 RNA polymerase. Bacterial strains were grown in liquid culture overnight and then diluted into antibiotic-containing medium. In the absence of drug, bacterial strains expressing no aptamer (bl-RSETA), the kanamycin aptamer (bl-kan1), or the tobramycin aptamer (bl-tob1) grew similarly (FIG. 3A). […] The partial-resistance of bl-kan1 to tobramycin (our unpublished data).

control RSETA mRNA = assay: Wheat germ in vitro translation of control RSETA mRNA; assay type: biochemical; conditions: all concentrations tested, wheat germ extract
Experimental: as §6, §1
A test mRNA was constructed containing three copies of the tob aptamer inserted in the 5′ UTR of RSETA (tob3-RSETA). […]
In vitro transcription reactions contained 5 μg pRSETA (or RSET derivative), 0.5 mM m^7G(5′)G, 0.5 mM ATP, CTP, UTP, 0.05 mM GTP, 10 mM DTT and 40 U T7 RNA polymerase in 50 μl of a solution of 40 mM Tris-HCl pH 7.5, 6 mM MgCl2, 2 mM spermidine, 10 mM NaCl. […] Translation products were separated by electrophoresis on an 18% polyacrylamide gel, visualized by autoradiography, and quantitated by densitometry.

Q: Which “In vitro translation of H2-RSETA mRNA” value [1] does the source give for `CN1CCN(c2ccc3[nH]c(-c4ccc5[nH]c(-c6ccc(O)cc6)nc5c4)nc3c2)CC1` [H33258] here?
A: inhibited in vitro translation of H2-RSETA

Q: What about the Toxicity [2] of the same molecule?
A: relatively non-toxic

Q: What about the Cell permeability [3] of the same molecule?
A: cell-permeable

Q: With `CCOc1ccc(-c2nc3ccc(-c4nc5ccc(N6CCN(C)CC6)cc5[nH]4)cc3[nH]2)cc1` [H33342] as the molecule, how does the “Expression of the luciferase reporter” value [4] read?
A: not inhibited

Q: And the Toxicity [2]?
A: relatively non-toxic

Q: What about the “Expression of parental expression vector SVβ Gal” value [5] of the same molecule?
A: not inhibited

Q: What about the “Reduction of β-galactosidase activity from SVH2β Gal” value [6] of the same molecule?
A: greater than 90%

Q: What about the “Cell permeability relative to H33258” value [3] of the same molecule?
A: approximately ten-fold more cell-permeable

Q: And the Cell permeability [3]?
A: cell-permeable

Q: What does the source list for `NC[C@H]1O[C@H](O[C@H]2[C@H](O)[C@@H](O[C@H]3O[C@H](CO)[C@@H](O)[C@H](N)[C@H]3O)[C@H](N)C[C@@H]2N)[C@H](N)C[C@@H]1O` [tobramycin]?
A: In vitro translation of tob3-RSETA mRNA [7]: inhibited in vitro translation of the tob3-RSETA mRNA in a dose-dependent fashion; Growth of bl-kan1 (kanamycin aptamer) in the presence of antibiotic [8]: grew to a sub-saturating level; Growth of bl-tob1 (tobramycin aptamer) in the presence of antibiotic [8]: grew to saturation; In vitro translation of control RSETA mRNA (control RSETA mRNA): unaffected

Q: Which “In vitro translation of tob3-RSETA mRNA” value [7] does the source give for `NC[C@H]1O[C@H](O[C@H]2[C@H](O)[C@@H](O[C@H]3O[C@H](CO)[C@@H](O)[C@H](N)[C@H]3O)[C@H](N)C[C@@H]2N)[C@H](O)[C@@H](O)[C@@H]1O` [kanamycin A] here?
A: not inhibited

Q: And the “Growth of bl-RSETA (no aptamer) in the presence of antibiotic” value ([8]; strain bl-RSETA)?
A: neglible

Q: And the “Growth of bl-kan1 (kanamycin aptamer) in the presence of antibiotic” value [8]?
A: grew to saturation

Q: What about the “Growth of bl-tob1 (tobramycin aptamer) in the presence of antibiotic” value [8] of the same molecule?
A: neglible

Q: And the “In vitro translation of control RSETA mRNA” value (control RSETA mRNA)?
A: unaffected
